As usually defined, the IC50 is the concentration that gives 50% inhibition.

Where two headings read alike, the source gives them in different places. Where a SMILES comes first, the peptide text is derived from it. Bridges are numbered along the chain shown (N, C = ends). [ ]: non-standard residue; d: D form. The star is where a group is joined. ξ: configuration not given here. Trp(βS-Me) = C[C@@H](c1c[nH]c2ccccc12)[C@H](N)C(=O)O; Phe(3-CF3) = N[C@@H](Cc1cccc(C(F)(F)F)c1)C(=O)O; Ala(morpholin-4-yl) = N[C@@H](CN1CCOCC1)C(=O)O; Phe(4-COOH) = N[C@@H](Cc1ccc(C(=O)O)cc1)C(=O)O; Asp(3,3-Me2) = CC(C)(C(=O)O)[C@H](N)C(=O)O; Bip = N[C@@H](Cc1ccc(-c2ccccc2)cc1)C(=O)O; Phe(3-Me) = Cc1cccc(C[C@H](N)C(=O)O)c1; Val(3-OH) = CC(C)(O)[C@H](N)C(=O)O; Benzoyl(4-F) = O=C(c1ccc(F)cc1)*; 4Pal = N[C@@H](Cc1ccncc1)C(=O)O; Cha = N[C@@H](CC1CCCCC1)C(=O)O; Cit = NC(=O)NCCC[C@H](N)C(=O)O; Ile(3ξ) = CCC(C)[C@H](N)C(=O)O; Thr(3ξ) = CC(O)[C@H](N)C(=O)O; dNle = CCCC[C@@H](N)C(=O)O; Carboxymethyl = O=C(O)C*; Orn = NCCC[C@H](N)C(=O)O; Pra = C#CC[C@H](N)C(=O)O; Dab = NCC[C@H](N)C(=O)O; Nva = CCC[C@H](N)C(=O)O; Dap = NC[C@H](N)C(=O)O

The source of these data is patent publication US20250163104A1, “MACROCYCLIC IMMUNOMODULATORS” (priority 2021, published 2025).

The assay addresses T1, human PD-1 / PD-L1-Ig binding on Jurkat cell line over-expressing human PD-1 (Jurkat-PD-1) (Homo sapiens, UniProt Q15116).
T1 construct: expressed in transfected cells; host or cells: Jurkat
Briefly: Jurkat-PD-1 Cell Binding High-Content Screening Assay (CBA). The settings on record: PE-labeled PD-L1-Ig 20 nM final. Format: cell-based. The procedure, abridged:
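Compounds were preincubated with Jurkat-hPD-1 cells in DMEM plus 10% fetal calf serum for 2 h at 37° C. Phycoerythrin-labeled PD-L1-Ig (20 nM final) was then added for 1 hour. Cells were fixed in 4% paraformaldehyde with Hoechst 33342, and bound fluorescence was quantified by high-content imaging.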

The mark [1] stands for this setting: Jurkat-PD-1 cells, read-out: Jurkat HPD1_PDL1 IC50.

T1 sequence (Q15116 25-288): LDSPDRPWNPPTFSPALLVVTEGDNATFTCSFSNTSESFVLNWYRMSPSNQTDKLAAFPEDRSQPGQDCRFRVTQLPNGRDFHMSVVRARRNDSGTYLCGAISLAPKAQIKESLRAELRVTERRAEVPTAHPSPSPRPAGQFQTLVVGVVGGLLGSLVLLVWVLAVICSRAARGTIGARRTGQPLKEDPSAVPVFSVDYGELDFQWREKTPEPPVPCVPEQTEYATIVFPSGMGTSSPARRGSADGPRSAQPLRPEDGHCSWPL

In the case of `CCC(C)[C@@H]1NC(=O)[C@H](Cc2ccc(-c3ccccc3)cc2)NC(=O)[C@H](C(C)C)NC(=O)[C@H](Cc2cccc(C)c2)NC(=O)[C@H](CC(=O)O)NC(=O)[C@H](Cc2ccc(C(=O)O)cc2)NC(=O)[C@H](Cc2ccncc2)NC(=O)CSC[C@@H](C(N)=O)NC(=O)[C@H]([C@@H](C)O)NC(=O)[C@H](C(C)C)NC(=O)[C@H](CC2CCCCC2)NC(=O)[C@H](CCN)NC(=O)[C@@H](CC(C)C)NC(=O)[C@H](CCCN)NC1=O` (stereo partly drawn) [Compound 2275] ({CH2CO}-[4Pal][Phe(4-COOH)]D[Phe(3-Me)]V[Bip][Ile(3ξ)][Orn][dL][Dab][Cha]VTC-NH2; thioether N-14), under setting [1], the IC50 was 33.5 nM. Same read-out and setting: the same measure for `CC(C)C[C@H]1NC(=O)[C@H](CCCN)NC(=O)[C@H](C(C)C)NC(=O)[C@H](Cc2ccc(-c3ccccc3)cc2)NC(=O)[C@H](C(C)C)NC(=O)[C@H](Cc2c[nH]c3ccccc23)NC(=O)[C@H](CC(=O)O)NC(=O)[C@H](Cc2ccc(C(=O)O)cc2)NC(=O)[C@H](Cc2ccc(OCC(=O)O)cc2)NC(=O)CSC[C@@H](C(=O)N[C@@H](C)C(N)=O)NC(=O)[C@H](CCCNC(=N)N)NC(=O)[C@H](C(C)C)NC(=O)[C@H](CC2CCCCC2)NC(=O)[C@H](CCN)NC1=O` [Compound 1748] ({CH2CO}-Y(Carboxymethyl)[Phe(4-COOH)]DWV[Bip]V[Orn][dL][Dab][Cha]VRCA-NH2; thioether N-14): 7.6 nM. The same measure, in the same setting: as for `Cc1cccc(C[C@@H]2NC(=O)[C@H](CC(=O)O)NC(=O)[C@H](Cc3ccc(OCC(=O)O)cc3)NC(=O)[C@H](CCCNC(=N)N)NC(=O)CSC[C@@H](C(N)=O)NC(=O)[C@H](CCCNC(=O)c3ccc(F)cc3)NC(=O)[C@H](C(C)C)NC(=O)[C@H](CC3CCCCC3)NC(=O)[C@H](CCN)NC(=O)[C@@H](CC(C)C)NC(=O)[C@H](CCCN)NC(=O)[C@H](Cc3ccc(OCC(=O)O)cc3)NC(=O)[C@H](Cc3ccc(-c4ccccc4)cc3)NC(=O)[C@H](Cc3ccc(O)cc3)NC2=O)c1` [Compound 2053] ({CH2CO}-RY(Carboxymethyl)D[Phe(3-Me)]Y[Bip]Y(Carboxymethyl)[Orn][dL][Dab][Cha]V[Orn](Benzoyl(4-F))C-NH2; thioether N-14), the figure is 39.4 nM; as for `CC(C)C[C@H]1NC(=O)[C@H](CCCN)NC(=O)[C@H](Cc2ccc(C(=O)O)cc2)NC(=O)[C@H](Cc2ccc(-c3ccccc3)cc2)NC(=O)[C@H]([C@@H](C)c2c[nH]c3ccccc23)NC(=O)[C@H](Cc2cccc(C(F)(F)F)c2)NC(=O)[C@H](CC(=O)O)NC(=O)[C@H](Cc2ccc(C(=O)O)cc2)NC(=O)[C@H](CN2CCOCC2)NC(=O)CSC[C@@H](C(=O)N[C@@H](CCN)C(N)=O)NC(=O)[C@H](CCC(=O)O)NC(=O)[C@H](C(C)C)NC(=O)[C@H](CC2CCCCC2)NC(=O)[C@H](CCN)NC1=O` [Example 2748] ({CH2CO}-[Ala(morpholin-4-yl)][Phe(4-COOH)]D[Phe(3-CF3)][Trp(βS-Me)][Bip][Phe(4-COOH)][Orn][dL][Dab][Cha]VEC[Dab]-NH2; thioether N-14), 25.2 nM. Still for that read-out and setting: as for `CCCC[C@H]1NC(=O)[C@H](CCCN)NC(=O)[C@H](CCC(=O)O)NC(=O)[C@H](Cc2ccc(-c3ccccc3)cc2)NC(=O)[C@H](C(C)C)NC(=O)[C@H](Cc2c[nH]c3ccccc23)NC(=O)[C@H](CC(=O)O)NC(=O)[C@H](Cc2ccncc2)NC(=O)[C@H](CN)NC(=O)CSC[C@@H](C(=O)N[C@@H](C)C(N)=O)NC(=O)[C@H]([C@@H](C)O)NC(=O)[C@H](C(C)C)NC(=O)[C@H](CC2CCCCC2)NC(=O)[C@H](CCN)NC1=O` [Compound 1452] ({CH2CO}-[Dap][4Pal]DWV[Bip]E[Orn][dNle][Dab][Cha]VTCA-NH2; thioether N-14), the figure is 25.2 nM; as for `Cc1cccc(C[C@@H]2NC(=O)[C@H](CC(=O)O)NC(=O)[C@H](Cc3ccc(OCC(=O)O)cc3)NC(=O)[C@H](Cc3ccncc3)NC(=O)CSC[C@@H](C(=O)N[C@@H](CCN)C(N)=O)NC(=O)[C@H](C(C)(C)C(=O)O)NC(=O)[C@H](C(C)C)NC(=O)[C@H](CC3CCCCC3)NC(=O)[C@H](CCN)NC(=O)[C@@H](CC(C)C)NC(=O)[C@H](CCCN)NC(=O)[C@H](Cc3ccc(OCC(=O)O)cc3)NC(=O)[C@H](Cc3ccc(-c4ccccc4)cc3)NC(=O)[C@H](Cc3ccc(OCC(=O)O)cc3)NC2=O)c1` [Compound 2085] ({CH2CO}-[4Pal]Y(Carboxymethyl)D[Phe(3-Me)]Y(Carboxymethyl)[Bip]Y(Carboxymethyl)[Orn][dL][Dab][Cha]V[Asp(3,3-Me2)]C[Dab]-NH2; thioether N-14), 70 nM. Regarding `C#CC[C@H](NC(=O)[C@H](CCN)NC(=O)[C@@H]1CSCC(=O)N[C@@H](CCC)C(=O)N[C@@H](Cc2ccc(OCC(=O)O)cc2)C(=O)N[C@@H](CC(=O)O)C(=O)N[C@@H](Cc2cccc(C)c2)C(=O)N[C@@H](Cc2ccc(OCC(=O)O)cc2)C(=O)N[C@@H](Cc2ccc(-c3ccccc3)cc2)C(=O)N[C@@H](Cc2ccc(OCC(=O)O)cc2)C(=O)N[C@@H](CCCN)C(=O)N[C@H](CC(C)C)C(=O)N[C@@H](CCN)C(=O)N[C@@H](CC2CCCCC2)C(=O)N[C@@H](C(C)C)C(=O)N[C@@H](CCC(=O)O)C(=O)N1)C(=O)O` [Compound 1826] ({CH2CO}-[Nva]Y(Carboxymethyl)D[Phe(3-Me)]Y(Carboxymethyl)[Bip]Y(Carboxymethyl)[Orn][dL][Dab][Cha]VEC[Dab][Pra]-OH; thioether N-14), under setting [1], the IC50 is 4 nM. The same measure, in the same setting: as for `CCNC(=O)[C@H](C)NC(=O)[C@@H]1CSCC(=O)N[C@@H](CN)C(=O)N[C@@H](Cc2ccc(OCC(=O)O)cc2)C(=O)N[C@@H](CC(=O)O)C(=O)N[C@@H](Cc2cccc(C)c2)C(=O)N[C@@H](C(C)C)C(=O)N[C@@H](Cc2ccc(-c3ccccc3)cc2)C(=O)N[C@@H](CCCNC(N)=O)C(=O)N[C@@H](CCCN)C(=O)N[C@H](CC(C)C)C(=O)N[C@@H](CCN)C(=O)N[C@@H](CC2CCCCC2)C(=O)N[C@@H](C(C)C)C(=O)N[C@@H](CN)C(=O)N1` [Compound 2015] ({CH2CO}-[Dap]Y(Carboxymethyl)D[Phe(3-Me)]V[Bip][Cit][Orn][dL][Dab][Cha]V[Dap]CA-NHEt; thioether N-14), the figure is 10.5 nM. In the case of `CC(C)C[C@H]1NC(=O)[C@H](CCCN)NC(=O)[C@H](C(C)C)NC(=O)[C@H](Cc2ccc(-c3ccccc3)cc2)NC(=O)[C@H](C(C)C)NC(=O)[C@H](Cc2c[nH]c3ccccc23)NC(=O)[C@H](CC(=O)O)NC(=O)[C@H](Cc2ccc(C(=O)O)cc2)NC(=O)[C@H](Cc2ccc(OCC(=O)O)cc2)NC(=O)CSC[C@@H](C(=O)N[C@@H](CCN)C(=O)N[C@@H](CCCNC(=N)N)C(=O)O)NC(=O)[C@H](CO)NC(=O)[C@H](C(C)C)NC(=O)[C@H](CC2CCCCC2)NC(=O)[C@H](CCN)NC1=O` [Compound 2586] ({CH2CO}-Y(Carboxymethyl)[Phe(4-COOH)]DWV[Bip]V[Orn][dL][Dab][Cha]VSC[Dab]R-OH; thioether N-14), the IC50 (Jurkat HPD1_PDL1 IC50, Jurkat-PD-1 cells) came to 10 nM.

For `CC(=O)NCCCC[C@@H]1NC(=O)[C@H](Cc2ccc(-c3ccccc3)cc2)NC(=O)[C@H](CC(C)C)NC(=O)[C@H](Cc2c[nH]c3ccccc23)NC(=O)[C@H](CC(=O)O)NC(=O)[C@H](Cc2ccc(OCC(=O)O)cc2)NC(=O)[C@H](C(C)O)NC(=O)CSC[C@@H](C(N)=O)NC(=O)[C@H](C(C)O)NC(=O)[C@H](C(C)C)NC(=O)[C@H](CC2CCCCC2)NC(=O)[C@H](CCC(=O)O)NC(=O)[C@@H](CC(C)C)NC(=O)[C@H](CCC(=O)O)NC1=O` (stereo partly drawn) [Compound 2607] ({CH2CO}-[Thr(3ξ)]Y(Carboxymethyl)DWL[Bip]K(Ac)E[dL]E[Cha]V[Thr(3ξ)]C-NH2; thioether N-14), the IC50 under setting [1] was found to be 389 nM. Same read-out and setting: as for `Cc1cccc(C[C@@H]2NC(=O)[C@H](CC(=O)O)NC(=O)[C@H](Cc3ccc(OCC(=O)O)cc3)NC(=O)[C@H](Cc3ccncc3)NC(=O)CSC[C@@H](C(=O)N[C@H](CC(N)=O)C(N)=O)NC(=O)[C@H](CO)NC(=O)[C@H](C(C)(C)O)NC(=O)[C@H](CC3CCCCC3)NC(=O)[C@H](CCN)NC(=O)[C@@H](CC(C)C)NC(=O)[C@H](CCCN)NC(=O)[C@H](Cc3ccc(OCC(=O)O)cc3)NC(=O)[C@H](Cc3ccc(-c4ccccc4)cc3)NC(=O)[C@H](Cc3ccc(C(=O)O)cc3)NC2=O)c1` [Compound 2628] ({CH2CO}-[4Pal]Y(Carboxymethyl)D[Phe(3-Me)][Phe(4-COOH)][Bip]Y(Carboxymethyl)[Orn][dL][Dab][Cha][Val(3-OH)]SC[dN]-NH2; thioether N-14), the figure is 20.6 nM; as for `CC[C@H](C)[C@@H]1NC(=O)[C@H](Cc2ccc(-c3ccccc3)cc2)NC(=O)[C@H](C(C)C)NC(=O)[C@H](Cc2cccc(C)c2)NC(=O)[C@H](CC(=O)O)NC(=O)[C@H](Cc2ccc(C(=O)O)cc2)NC(=O)[C@H](Cc2ccncc2)NC(=O)CSC[C@@H](C(=O)N[C@@H](C)C(N)=O)NC(=O)[C@H]([C@@H](C)O)NC(=O)[C@H](C(C)C)NC(=O)[C@H](CC(C)C)NC(=O)[C@H](CCN)NC(=O)[C@@H](CC(C)C)NC(=O)[C@H](CCCN)NC1=O` [Compound 1180], 8.9 nM; as for `C#CC[C@H](NC(=O)[C@H](CCN)NC(=O)[C@@H]1CSCC(=O)N[C@@H](CCN)C(=O)N[C@@H](Cc2ccc(C(=O)O)cc2)C(=O)N[C@@H](CC(=O)O)C(=O)N[C@@H](Cc2cccc(C)c2)C(=O)N[C@@H](Cc2ccc(C(=O)O)cc2)C(=O)N[C@@H](Cc2ccc(-c3ccccc3)cc2)C(=O)N[C@@H](Cc2ccc(C(=O)O)cc2)C(=O)N[C@@H](CCCN)C(=O)N[C@H](CC(C)C)C(=O)N[C@@H](CCN)C(=O)N[C@@H](CC2CCCCC2)C(=O)N[C@@H](C(C)(C)O)C(=O)N[C@@H](CCCN)C(=O)N1)C(N)=O` [Compound 1850] ({CH2CO}-[Dab][Phe(4-COOH)]D[Phe(3-Me)][Phe(4-COOH)][Bip][Phe(4-COOH)][Orn][dL][Dab][Cha][Val(3-OH)][Orn]C[Dab][Pra]-NH2; thioether N-14), 5.2 nM.
